The source of these data is patent US11345710B2, “Imidazo[1,2-b]pyrimido[4,5-d]pyridazin-5(6H)-ones and the use thereof” (IMPACT THERAPEUTICS (SHANGHAI), INC, priority 2017, dated 2022).

Where two headings read alike, the source gives them in different places.

In assay [1] the test system is LoVo cells. The experiment in a line: MTT based cell viability assay on LoVo cells. As to conditions: read-out: IC50, growth inhibition on LoVo cells. As to the method:
Determination of the Cell Growth Inhibiting Activity of 6-(2,6-dichlorophenyl)-2-((4-(4-methylpiperazin-1-yl)phenyl)amino)imidazo[1,2-b]pyrimido[4,5-d]pyridazin-5(6H)-one and Analogs Thereof on LoVo Cells Using a MTT Based Cell Viability Assay
The thawed LoVo cells were cultured and passaged to the third generation, and the growth state was good and the confluence was about 90%, which began to be used in the experiment. The LoVo cells were digested with trypsin, centrifuged at 800 rpm for 5 min, the supernatant was discarded, resuspended with fresh culture medium, and counted. 6000 Cells are seeded to each well of a 96-well cell culture plate. The cells were incubated at 37° C. in a 5% CO2 cell culture incubator overnight. The tested sample (including the tested compound and the reference compound AZD1775) was diluted continuously to 8 concentrations (the last concentration was negative control of DMSO) with a 1:3 and 1:10 dilution in DMSO respectively: 10 μM, 3.3 μM, 1 μM, 0.33 μM, 0.1 μM, 0.033 μM, 0.01 μM, 0 μM (the final concentration of DMSO was 1%). 5 μL of each concentration was added to 120 μL of culture medium (25 times diluted), and the mixture was shaken well. The overnight cells were taken and the culture medium was removed, 195 μL of fresh culture medium was added to each well, and 5 μL of diluted culture medium containing the corresponding concentration of the tested sample was added respectively, and the culture plate was then placed in the 5% CO2 cell culture incubator at 37° C. for 3 d. After removing the original solution and adding 100 μL of fresh serum-free DMEM culture medium containing MTT (0.5 mg/mL) per well, the culture was continued. The original solution was removed after 4 hrs and 100 μl DMSO was added to each well. The 96-well cell culture plates were shaken away from light for 10 min and readed in a multifunctional reader at 552/630/690 nm to give absorption values (OD values). The data were analyzed using a graphic software (Graph Pad Prism 5.0) and the inhibitory activity of the compound on cell proliferation was plotted in terms of cell survival and compound concentration. The IC50 values were fitted by the S-shaped dose-response curve equation as follows: Y=100/(1+10^(Log C−Log IC50)), where C was the concentration of testing compounds.

Assay [2] concerns the target Wee1 kinase (h) (Homo sapiens, UniProt P30291). As to the kind of experiment: Wee1 kinase (h) detection method, [γ-33P]-ATP filter assay. The class given is biochemical. As to conditions: 10 μM ATP, 40 minutes at room temperature. As to the method:
Wee1 kinase (h) was incubated with 20 mM Tris/HCl pH 8.5, 0.2 mM EDTA, 500 μM […], 10 mM MgAcetate and 10 μM [γ-^33P]-ATP. Then the stock solution of all compounds under test with 50× concentration in 100% DMSO was added to make the final concentration of 1/0.1/0.01 μM, and then mixed the mixture well. The reaction was initiated by the addition of the Mg/ATP mix. After incubation for 40 minutes at room temperature, the reaction was stopped by the addition of phosphoric acid to a concentration of 0.5%. 10 μL of the reaction liquor was then spotted onto a P30 filtermat and washed four times in 0.425% phosphoric acid and once in methanol prior to drying and scintillation counting. Each compound sample was duplicated in duplicate. The negative control was lack of all the components of Wee1 enzyme, and the positive was addition of 30% phosphoric acid to terminate the reaction. The Wee1 inhibitor AZD1775 was detected at 10/0.01 μM at the same experiment condition.

Assay [3] deals with NCI-H1299 cells. The experiment in a line: MTT based cell viability assay on NCI-H1299 cells. The following applies: read-out: IC50, growth inhibition on NCI-H1299 cells. As to the method: Determination of the Cell Growth Inhibiting Activity of 6-(2,6-dichlorophenyl)-2-((4-(4-methylpiperazin-1-yl)phenyl)amino)imidazo[1,2-b]pyrimido[4,5-d]pyridazin-5(6H)-one and Analogs on NCI-H1299 Cells Using a MTT Based Cell Viability Assay
The thawed NCI-H1299 cells were cultured and passaged to the third generation, and the growth state was good and the confluence was about 90%, which began to be used in the experiment. The NCI-H1299 cells were digested with trypsin, centrifuged at 800 rpm for 5 min, the supernatant was discarded, resuspended with fresh culture medium, and counted. 1000 Cells are seeded to each well of a 96-well plate. The cells are incubated at 37° C. in a 5% CO2 cell culture incubator overnight. The tested sample (including the tested compound and the reference compound AZD1775) was diluted continuously to 8 concentrations (the last concentration was negative control of DMSO) with a 1:3 and 1:10 dilution in DMSO respectively: 10 μM, 3.3 μM, 1 μM, 0.33 μM, 0.1 μM, 0.033 μM, 0.01 μM, 0 μM (the final concentration of DMSO was 1%). 5 μL of each concentration was added to 120 μL of culture medium (25 times diluted), and the mixture was shaken well. The overnight cells were taken and the culture medium was removed, 195 μL of fresh culture medium was added to each well, and 5 μL of diluted culture medium containing the corresponding concentration of the tested sample was added respectively, and the culture plate was then placed in the 5% CO2 cell culture incubator at 37° C. for 3 d. After removing the original solution and adding 100 μL of fresh serum-free DMEM culture medium containing MTT (0.5 mg/mL) per well, the culture was continued. The original solution was removed after 4 hrs and 100 μl DMSO was added to each well. The 96-well cell culture plates were shaken away from light for 10 min and readed in a multifunctional reader at 552/630/690 nm to give absorption values (OD values). The data were analyzed using a graphic software (Graph Pad Prism 5.0) and the inhibitory activity of the compound on cell proliferation was plotted in terms of cell survival and compound concentration. The IC50 values were fitted by the S-shaped dose-response curve equation as follows: Y=100/(1+10^(Log C−Log IC50)), where C was the concentration of testing compounds.

Where [4] appears, read: Homo sapiens, 72 h, LoVo cells, 3 d, MTT.
Setting [5] is: Homo sapiens, 72 h, NCI-H1299 cells, 3 d, MTT.

Wee1 kinase (h), sequence (P30291 whole entry): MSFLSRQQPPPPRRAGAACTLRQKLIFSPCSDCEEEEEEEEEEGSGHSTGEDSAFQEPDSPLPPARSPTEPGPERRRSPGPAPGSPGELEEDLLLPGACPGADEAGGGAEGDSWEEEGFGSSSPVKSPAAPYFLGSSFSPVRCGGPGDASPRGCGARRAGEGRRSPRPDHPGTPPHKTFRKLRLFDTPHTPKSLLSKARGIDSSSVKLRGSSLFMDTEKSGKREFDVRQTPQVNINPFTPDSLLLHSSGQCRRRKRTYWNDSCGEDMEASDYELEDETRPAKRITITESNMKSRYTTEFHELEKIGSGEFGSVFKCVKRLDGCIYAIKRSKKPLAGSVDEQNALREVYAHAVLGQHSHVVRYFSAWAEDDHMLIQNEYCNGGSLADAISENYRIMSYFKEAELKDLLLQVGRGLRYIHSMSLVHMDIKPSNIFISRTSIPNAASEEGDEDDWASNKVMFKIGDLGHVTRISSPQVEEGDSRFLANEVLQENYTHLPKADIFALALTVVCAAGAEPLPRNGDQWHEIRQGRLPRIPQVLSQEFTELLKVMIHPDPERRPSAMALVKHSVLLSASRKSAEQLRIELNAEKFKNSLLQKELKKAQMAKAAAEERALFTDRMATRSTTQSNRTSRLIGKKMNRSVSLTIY

`Cc1cc(Nc2ncc3c(=O)n(-c4c(Cl)cccc4Cl)n4ccnc4c3n2)ccc1N1CCNCC1` [Example 26, 6-(2,6-dichlorophenyl)-2-((3-methyl-4-(piperazin-1-yl)phenyl)amino)imidazo[1,2-b]pyrimido[4,5-d]pyridazin-5(6H)-one]: the IC50 was determined as 201 nM in assay [1] (Homo sapiens, LoVo, 72 h) and 268 nM in assay [3] (Homo sapiens, NCI-H1299, 72 h). The “Inh. (%) of Wee1 kinase” value in assay [2] (C 0.01 μm) was 27%.
For `COc1cc(Nc2ncc3c(=O)n(-c4c(Cl)cccc4Cl)n4ccnc4c3n2)cc(Cl)c1N1CCC(N(C)C)CC1` [Example 38, 6-(2,6-dichlorophenyl)-2-((3-chloro-5-methoxy-4-(4-(dimethylamino)piperidin-1-yl)phenyl)amino)imidazo[1,2-b]pyrimido[4,5-d]pyridazin-5(6H)-one], the IC50 amounted to 416 nM in assay [1] (Homo sapiens, LoVo, 72 h) and 978 nM in assay [3] (Homo sapiens, NCI-H1299, 72 h). Also, the “Inh. (%) of Wee1 kinase” value in assay [2] (C 0.01 μm) was 11%.
Regarding `Cc1cn2c(n1)c1nc(Nc3ccc(N4CCC(N(C)C)CC4)c(C)c3)ncc1c(=O)n2-c1c(Cl)cccc1Cl` [Example 58, 6-(2,6-dichlorophenyl)-2-((3-methyl-4-(4-(dimethylamino)piperidin-1-yl)phenyl)amino)-9-methylimidazo[1,2-b]pyrimido[4,5-d]pyridazin-5(6H)-one], the IC50 in assay [1] (setting [4]) came out at 242 nM; in assay [3] (setting [5]), 151 nM. For the same compound, the “Inh. (%) of Wee1 kinase” value in assay [2] (C 0.01 μm) is recorded as 9%.
`Cc1cc(Nc2ncc3c(=O)n(-c4c(F)cccc4F)n4ccnc4c3n2)cc(F)c1N1CCN(C)CC1` [Example 19, 6-(2,6-difluorophenyl)-2-((3-fluoro-5-methyl-4-(4-methylpiperazin-1-yl)phenyl)amino)imidazo[1,2-b]pyrimido[4,5-d]pyridazin-5(6H)-one]: the IC50 in assay [1] (setting [4]) was found to be 408 nM; in assay [3] (setting [5]), 743 nM. Moreover, in assay [2] (C 1 μm), the “Inh. (%) of Wee1 kinase” value was determined as 92%.
Consider `Cc1cc(Nc2ncc3c(=O)n(-c4c(Cl)cccc4Cl)n4ccnc4c3n2)cc(F)c1N1CCC(N(C)C)CC1` [Example 37, 6-(2,6-dichlorophenyl)-2-((3-fluoro-5-methyl-4-(4-(dimethylamino)piperidin-1-yl)phenyl)amino)imidazo[1,2-b]pyrimido[4,5-d]pyridazin-5(6H)-one], for which the IC50 stood at 291 nM in assay [1] (Homo sapiens, LoVo, 72 h) and 187 nM in assay [3] (Homo sapiens, NCI-H1299, 72 h). Further, the “Inh. (%) of Wee1 kinase” value in assay [2] (C 0.01 μm) is listed as 13%; in assay [2] (C 1 μm), 96%.
In the case of `CN1CCN(c2ccc(Nc3ncc4c(=O)n(-c5c(F)cccc5F)n5ccnc5c4n3)cc2Cl)CC1` [Example 18, 6-(2,6-difluorophenyl)-2-((3-chloro-4-(4-methylpiperazin-1-yl)phenyl)amino)imidazo[1,2-b]pyrimido[4,5-d]pyridazin-5(6H)-one], the IC50 is 579 nM in assay [1] (setting [4]) and 1080 nM in assay [3] (setting [5]). In addition, in assay [2] (C 1 μm), the “Inh. (%) of Wee1 kinase” value is on record as 87%.
The like results for `Cc1cc(Nc2ncc3c(=O)n(-c4c(F)cccc4Cl)n4ccnc4c3n2)cc(Cl)c1N1CCN(C)CC1` [Example 23, 6-(2-chloro-6-fluorophenyl)-2-((3-chloro-5-methyl-4-(4-methylpiperazin-1-yl)phenyl)amino)imidazo[1,2-b]pyrimido[4,5-d]pyridazin-5(6H)-one] were, in that order, 195 nM, 528 nM and 91%.
Regarding `Cc1cc(Nc2ncc3c(=O)n(-c4c(Cl)cccc4Cl)n4ccnc4c3n2)ccc1N1C[C@@H](C)N(C(C)C)[C@@H](C)C1` [Example 34, 6-(2,6-dichlorophenyl)-2-((3-methyl-4-((3S,5R)-4-isopropyl-3,5-dimethylpiperazin-1-yl)phenyl)amino)imidazo[1,2-b]pyrimido[4,5-d]pyridazin-5(6H)-one], the IC50 turned out to be 236 nM in assay [1] (Homo sapiens, LoVo, 72 h) and 219 nM in assay [3] (Homo sapiens, NCI-H1299, 72 h). In addition, the “Inh. (%) of Wee1 kinase” value in assay [2] (C 0.01 μm) is recorded as 21%.
Take `CN1CCN(c2ccc(Nc3ncc4c(=O)n(-c5c(Cl)cccc5Cl)n5ccnc5c4n3)cc2Cl)CC1` [Example 27, 6-(2,6-dichlorophenyl)-2-((3-chloro-4-(4-methylpiperazin-1-yl)phenyl)amino)imidazo[1,2-b]pyrimido[4,5-d]pyridazin-5(6H)-one]: the IC50 in assay [1] (Homo sapiens, LoVo, 72 h) is 370 nM; in assay [3] (Homo sapiens, NCI-H1299, 72 h), 470 nM. Further, the “Inh. (%) of Wee1 kinase” value in assay [2] (C 0.01 μm) was 17%; in assay [2] (C 0.1 μm) it was 76%; in assay [2] (C 1 μm), 97%.
For `Cc1cc(Nc2ncc3c(=O)n(-c4c(Cl)cccc4Cl)n4ccnc4c3n2)ccc1N1CCN(C)CC1` [Example 3, 6-(2,6-dichlorophenyl)-2-((3-methyl-4-(4-methylpiperazin-1-yl)phenyl)amino)imidazo[1,2-b]pyrimido[4,5-d]pyridazin-5(6H)-one], the IC50 in assay [1] (Homo sapiens, LoVo, 72 h) was 236 nM; in assay [3] (Homo sapiens, NCI-H1299, 72 h), 178 nM. Further, the “Inh. (%) of Wee1 kinase” value stood at 26% in assay [2] (C 0.01 μm), 76% in assay [2] (C 0.1 μm) and 96% in assay [2] (C 1 μm).
Consider `Cc1cc(Nc2ncc3c(=O)n(-c4c(Cl)cccc4Cl)n4ccnc4c3n2)cc2c1C(C)(C)CN(C)C2` [Example 43, 6-(2,6-dichlorophenyl)-2-((2,4,4,4,5-tetramethyl-1,2,3,4-tetrahydroisoquinolin-7-yl)amino)imidazo[1,2-b]pyrimido[4,5-d]pyridazin-5(6H)-one], for which the IC50 in assay [1] (LoVo cells, 3 d, MTT) is 476 nM; in assay [3] (NCI-H1299 cells, 3 d, MTT), 175 nM. In addition, the “Inh. (%) of Wee1 kinase” value in assay [2] (C 0.01 μm) is 9%.
As for `Cc1cc(Nc2ncc3c(=O)n(-c4c(Cl)cccc4Cl)n4ccnc4c3n2)cc2c1CCN(C)C2` [Example 44, 6-(2,6-dichlorophenyl)-2-((2,5-dimethyl-1,2,3,4-tetrahydroisoquinolin-7-yl)amino)imidazo[1,2-b]pyrimido[4,5-d]pyridazin-5(6H)-one], the IC50 in assay [1] (Homo sapiens, LoVo, 72 h) was determined as 371 nM; in assay [3] (Homo sapiens, NCI-H1299, 72 h) it was 164 nM. In assay [2] (C 0.01 μm), the “Inh. (%) of Wee1 kinase” value is given as 4%.
